According to patent US20250125004A1, “SYSTEMS AND METHODS FOR POST-TRANSLATIONAL MODIFICATION-INSPIRED DRUG DESIGN AND SCREENING” (Ensem Therapeutics, Inc., priority 2021, published 2025):

Assays:
[1] = biological target: c-Src (Src-k protein) (Homo sapiens, UniProt P12931); experiment: Protein thermal shift (PTS) assay; format: binding
Description: Human c-Src kinase domain (Src-k, including WT and C280S, 254-536) with a TEV protease cleavable N-terminal 6×-His tag was cloned into pET28a vector and co-expressed with full length YopH phosphatase cloned to pCDFDuet-1 vector in Escherichia coli BL21 (DE3) cells. Cells were cultured in LB medium at 37° C. and induced with 0.4 mM IPTG at 18° C. for 16 hours. Proteins were purified using HisTrap FF column (GE Healthcare) in buffer containing 50 mM Hepes pH=8.0, 500 mM NaCl, 5% glycerol and imidazole (25 mM for loading, 150 mM for elution). After TEV enzyme cleavage, proteins were loaded to Hitrap Q FF (GE Healthcare) in buffer containing 20 mM Hepes pH=8.0, 5% glycerol, 1 mM DTT (QA) and eluted with a linear gradient of 10-30% buffer QB (buffer QA plus 1M NaCl). Then proteins were further purified by Superdex75TM 10/300 GL column (GE Healthcare) and change the buffer to 20 mM Hepes pH=7.4, 150 mM NaCl, 1 mM DTT. Protein thermal shift (PTS) assays were performed on a QuantStudioTM 6 Flex Real-time PCR system (Applied Biosystems). […] Src-k protein, 5×SYPRO® orange (Molecular Probes) and different concentrations of compounds were mixed in 20 μL final buffer and added to 96-well plates (DN Biotech). According to the standard protocol, the reaction system was heated from 25° C. to 95° C. within 25 minutes, and the fluorescence signal was monitored in real time. Protein […] ShiftTM Software Version 1.2 (Life Technologies) was used to determine the Tm value and Graphpad Prism 8.0 was used to draw the curves. The Y419-phosphorylated protein used was obtained by incubating Src-k protein with 5 mM MgCl2 and 10 mM ATP overnight, and then desalting it into final buffer.

[2] = biological target: T1, c-Src (Homo sapiens, UniProt P12931); experiment: Homogeneous time-resolved fluorescence (HTRF) assay, KinEASE-TK kit; format: biochemical; settings: 120 min incubation, n=3 for DC-Srci-6668, read-out: IC50, inhibition of c-Src catalytic activity
Description: Based on this, covalent docking was performed against an in-house compound library, consisting of 720 compounds with reactive chemical groups. After score ranking and cluster analysis (FIG. 6B), 16 compounds were selected and purchased from ChemDiv (San Diego, CA, USA) for subsequent biochemical evaluations. Although IC50 values are time-dependent for covalent inhibitor and cannot be used to fully characterize the true binding affinity, they are also recognized as an indicator for preliminary evaluating the biological activity of covalent compounds. The homogeneous time resolved fluorescence (HTRF) assay was then conducted to determine the compound inhibitory activity, using the HTRF KinEASE-TK kit (Cisbio, Bedford, MA, USA). […] The cells were infected with baculovirus at 27° C. for 48-72 hours before collection. Cells were lysed in buffer containing 20 mM Hepes pH=7.4, 150 mM NaCl, 1 mM DTT, 1× protease inhibitor cocktail (Roche) and 1 mM PMSF. […] The ability of compounds to inhibit the phosphorylation of a peptide substrate by c-Src kinase was evaluated by homogeneous time-resolved fluorescence (HTRF) using KinEASE-TK kit (Cisbio, Bedford, MA, USA). […] Finally, fluorescence was measured at 615 nm and 665 nm using EnVision reader (PerkinElmer). The results were calculated as follows: ratio=OD665/OD615 and the IC50 values were analyzed in Graphpad Prism 8.0.

[3] = biological target: T1, c-Src; experiment: Intact protein mass by HPLC/MS, covalent binding; settings: about 20 μM c-Src, 100 μM compound, 4° C., 8 hours; expected 316.34 Da for a single covalent adduct
Description: c-Src protein was diluted to approximately 20 μM in final buffer and incubated with compound at a final concentration of 100 μM or same volume of DMSO at 4° C. for 8 hours. Then, the protein samples were diluted into aqueous solution containing 0.1% formic acid (about 1 mg/mL), and 2 μg of the target protein samples were took for LC/MS analysis. Intact protein high-resolution mass spectrometry was performed using Ultimate 3000 LC liquid chromatograph and LTQ Orbitrap mass spectrometer equipped with HESI ion source (Thermo Fisher, CA). BioPharma Finder software (version 2.0, Thermal Fischer, California) was used to process the raw LC-MS data, and the […] deconvolution algorithm was used to obtain the intact protein masses.

[4] = biological target: c-Src Y419 autophosphorylation (His-tag Src-k protein) (Homo sapiens, UniProt P12931); experiment: Amplified Luminescent Proximity Homogeneous Assay (ALPHA), auto-phosphorylation of c-Src Y419; format: biochemical; settings: 90 min incubation, n=3, read-out: IC50, inhibition of autophosphorylation of c-Src Y419
Description: Human c-Src kinase domain (Src-k, including WT and C280S, 254-536) with a TEV protease cleavable N-terminal 6×-His tag was cloned into pET28a vector and co-expressed with full length YopH phosphatase cloned to pCDFDuet-1 vector in Escherichia coli BL21 (DE3) cells. Cells were cultured in LB medium at 37° C. and induced with 0.4 mM IPTG at 18° C. for 16 hours. Proteins were purified using HisTrap FF column (GE Healthcare) in buffer containing 50 mM Hepes pH=8.0, 500 mM NaCl, 5% glycerol and imidazole (25 mM for loading, 150 mM for elution). After TEV enzyme cleavage, proteins were loaded to Hitrap Q FF (GE Healthcare) in buffer containing 20 mM Hepes pH=8.0, 5% glycerol, 1 mM DTT (QA) and eluted with a linear gradient of 10-30% buffer QB (buffer QA plus 1M NaCl). Then proteins were further purified by Superdex75™ 10/300 GL column (GE Healthcare) and change the buffer to 20 mM Hepes pH=7.4, 150 mM NaCl, 1 mM DTT. The ability of compounds to inhibit the auto-phosphorylation of c-Src Y419 was determined by Amplified Luminescent Proximity Homogeneous Assay (ALPHA). ALPHA assay was carried out in assay buffer containing 20 mM Hepes, pH=7.4, 0.1% Triton X-100, 1 mM DTT, 0.1% bovine serum albumin (w/v)). […] Finally, the signals were measured in ALPHA protocol using EnVision reader and the IC50 values analyzed in Graphpad Prism 8.0.

Sequence of c-Src (Src-k protein) (P12931 254-536): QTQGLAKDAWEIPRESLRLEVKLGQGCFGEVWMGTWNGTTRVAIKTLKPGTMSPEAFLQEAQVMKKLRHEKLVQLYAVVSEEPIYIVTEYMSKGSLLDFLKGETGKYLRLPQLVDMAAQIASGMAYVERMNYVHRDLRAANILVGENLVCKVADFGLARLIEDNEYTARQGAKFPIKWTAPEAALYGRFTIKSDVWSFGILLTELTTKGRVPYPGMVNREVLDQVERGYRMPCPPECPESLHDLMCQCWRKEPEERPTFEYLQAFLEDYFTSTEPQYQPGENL
T1 sequence (P12931 86-536): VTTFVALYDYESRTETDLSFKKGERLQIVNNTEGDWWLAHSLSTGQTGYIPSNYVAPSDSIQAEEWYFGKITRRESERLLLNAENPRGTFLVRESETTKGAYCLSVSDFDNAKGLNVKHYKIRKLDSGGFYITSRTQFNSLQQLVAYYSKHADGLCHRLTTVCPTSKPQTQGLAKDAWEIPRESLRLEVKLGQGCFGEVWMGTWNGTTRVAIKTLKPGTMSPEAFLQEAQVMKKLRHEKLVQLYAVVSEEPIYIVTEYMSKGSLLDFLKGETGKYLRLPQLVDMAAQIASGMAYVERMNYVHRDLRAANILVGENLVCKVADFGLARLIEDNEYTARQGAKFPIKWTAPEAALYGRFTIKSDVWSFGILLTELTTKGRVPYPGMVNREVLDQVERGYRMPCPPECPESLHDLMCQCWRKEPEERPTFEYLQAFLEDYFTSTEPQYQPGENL
Sequence of c-Src Y419 autophosphorylation (His-tag Src-k protein) (P12931 254-536): as the sequence (P12931 254-536) above

- positive Tm shift of c-Src ([1]; concentration ratio 1:5): 1.50 °C
- positive Tm shift of c-Src ([1]; concentration ratio 1:10): 2.56 °C
- positive Tm shift of c-Src ([1]; concentration ratio 1:20): 3.30 °C
- IC50 [2]: 2.39 ± 0.164 µM
- increase of MW of c-Src after compound treatment [3]: 316.64 Da
- IC50 [4]: 3.88 ± 0.586 µM
Compound: O=C(NC1CCCC1)C(c1ccc(F)cc1)N(C(=O)CCl)C1CC1 (stereo not drawn) [DC-Srci-6668]
